Article PMC6345779, “Hypoculoside, a sphingoid base-like compound from Acremonium disrupts the membrane integrity of yeast cells” (Scientific Reports, 2019)

Key:
[1] = test system: Klebsiella aerogenes (ATCC 13048); assay: Antibacterial growth inhibition assay; type: cell-based; details: Gram-negative
Procedure: (§1) Effect of hypoculoside on the growth of three bacterial strains Staphylococcus aureus (ATCC 25923), Pseudomonas aeruginosa (ATCC 9027) and Klebsiella aerogenes (ATCC 13048) was assessed as previously described. Cytotoxicity of hypoculoside on the A549 human lung cell line and the pancreatic carcinoma cell lines MIA PaCa-2 and PANC-1 was determined as described before. A549 and MIA PaCa-2 were seeded at 1,500 cells per well, and PANC-1 cells were seeded at 2,500 cells per well in a 384-well microplate. Cells were treated with hypoculoside at various concentrations and incubated for 72 hours at 37 °C in the presence of 5% CO2. Cytotoxic effect of hypoculoside was measured using the PrestoBlue™ cell viability reagent (Life Technologies). Following incubation of the microplates with the dye for 2 hours, the fluorescence reading (Excitation/Emission: 560 nm/590 nm) was recorded using the Tecan Infinite M1000 Pro reader.
(§2) Legends for Supplementary figures and tables
(§3) Figure S1 Analysis of hypoculoside by MS/MS
(§4) Collision-Induced dissociation (CID) MS/MS fragmentation spectra of hypoculoside (8) generated at energies of 10 eV, 20 eV and 40 eV are depicted in panels A, B and C […]
(§5) Figure S2 Hypoculoside has antifungal, antibacterial and mammalian cytotoxic […]
(§6) A. Logarithmically growing Candida albicans cells were exposed to hypoculoside and amphotericin B at the indicated concentrations in triplicates in a 96-well microplate. A picture of the microplate after 24 hours of incubation at 30 °C is […]
(§7) B. Saccharomyces cerevisiae cultures in duplicate were treated with hypoculoside at the indicated concentrations in YPD medium at 30 °C for 24 hours. Growth of the yeast cultures as measured by OD600 nm is plotted against hypoculoside concentration. Yeast cells treated with either DMSO or 21 µM hypoculoside for 24 hours were then washed in YPD and plated at different dilutions on a YPD agar and incubated at 30 °C. The YPD agar plate was photographed after 2 […]
C. […]

[2] = test system: Pseudomonas aeruginosa (ATCC 9027); assay: Antibacterial growth inhibition assay; type: cell-based; details: Gram-negative
Procedure: as §1, §2, §3, §4, §5, §6, §7
C. […]

[3] = test system: Staphylococcus aureus (ATCC 25923); assay: Antibacterial growth inhibition assay; type: cell-based; details: ATCC25923, Gram-positive, read-out: IC50 against Staphylococcus aureus
Procedure: as §1, §2, §3, §4, §5, §6, §7
C. […]

[4] = Mammalian cell cytotoxicity assay (PrestoBlue cell viability, 72 hours); type: cell-based; details: human, A549, MIA PaCa-2, PANC-1, one range for the lines, read-out: cytotoxicity IC50 against human lung and pancreatic carcinoma cell lines
Procedure: as §1

[5] = test system: vacuoles of wild type yeast cells; assay: FM 4-64 fluorescence microscopy of vacuolar structure; type: cell-based, Saccharomyces cerevisiae; details: 11.6 µM, FM 4-64 pre-labelled wild type cells, N = 100 cells
Procedure: As several vacuolar transport mutants were sensitive to hypoculoside (Fig. 3), we examined the effect of hypoculoside on the vacuolar structure of yeast cells. We incubated wild type yeast cells with FM 4–64, a dye that stains the vacuolar membranes, for 1 hour. We then washed off the excess FM 4–64 from the medium and transferred the cells into fresh medium with either hypoculoside or hypoculine or DMSO. […] In contrast, about 50% of 11.6 µM hypoculoside-treated cells had defective vacuoles (Fig. 7B). However, only 3% of 11.6 µM hypoculine-treated cells had defective vacuoles. Thus, the effect of hypoculoside and hypoculine on vacuolar structure correlates with their inhibitory activities.
Figure 7 Hypoculoside but not hypoculine disrupts the vacuolar structure of yeast cells. Wild type yeast cells containing vacuoles pre-labelled with the lipophilic dye FM 4-64 were exposed to either DMSO or hypoculoside or hypoculine at the indicated concentrations for 1 hour. Effects of the compounds on vacuolar morphology was analyzed by fluorescence microscopy. […] (B) Quantification of the various categories for cells treated with either DMSO or hypoculoside or hypoculine is plotted (N = 100 cells). […]
Labeling of yeast cells with FM4-64 (Invitrogen) was done as previously reported. […] The images were acquired using an inverted fluorescence microscope ZEISS LSM 5 LIVE (Carl Zeiss, Oberkochen, Germany).

BY4743 cells = assay: Propidium iodide (PI)-staining assay of plasma membrane integrity; type: cell-based, Saccharomyces cerevisiae; details: 5.3 µM, after 2 hours
Procedure: Figure 8 Hypoculoside but not hypoculine disrupts the membrane integrity of yeast cells. (A) Wild type yeast cells pre-treated with either DMSO or hypoculoside (5.4 μM) were exposed to FM 4-64FX. Uptake of FM 4-64FX after 0′, 30′ and 120′ was analyzed by fluorescence microscopy of fixed cells. (B) Yeast cells were incubated with either DMSO or hypoculoside or hypoculine at different concentrations (1.8, 3.5 and 5.3 µM) for 30′ and 2 hours. They were then treated with propidium iodide (PI) and percentage of PI-staining cells was assayed by fluorescence microscopy. Representative images of cells visualized by bright field and fluorescence microscopy are shown along with quantification of PI-staining cells (N = 100 cells) in (C).
We then tested whether hypoculoside causes membrane leakage using the membrane impermeant dye propidium iodide (PI). […] We then incubated the cells with PI and visualized its uptake by fluorescence microscopy. […]
BY4743 cells (OD600 nm ≈ 1) were exposed to various concentrations of hypoculoside or hypoculine or DMSO in YPD for 30′ and 2 hours. […] PI uptake by cells was assayed by bright-field and fluorescence microscopy [Excitation/Emission (nm): 535/617] and the percentage of PI-staining cells (N ≥ 100) was calculated.

With CC(N)C(O)CCCCCCCCCCCCCCCCCCC(O)C(C)OC1OC(CO)C(O)C(O)C1O (stereo not drawn) [hypoculoside, Hypoculoside] the “inhibitory activity against Klebsiella aerogenes” value [1] was “not against Gram-negative bacteria”, the “inhibitory activity against Pseudomonas aeruginosa” value [2] was “not against Gram-negative bacteria” and the IC50 [3] was 11.7 µM. For the same molecule, the IC50 at 72 h [4] was 9 to 14 µM, the “cells with defective vacuoles” value [5] was “about 50%” and the “cells that had internalized PI” value (BY4743 cells) was “about 60%”.
